Assays:
Format in all cases: cell-based
human TLR7 = human TLR7 (Homo sapiens (Human), UniProt Q9NYK1); experiment: TLR7 inhibition reporter assay (HEK-Blue, SEAP); settings: HEK-Blue cells overexpressing human TLR7, gardiquimod 7.5 μM stimulation
Method in brief: (§1)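 After 30 min room-temperature pre-incubation with compound (0.05 nM–50 μM), reporter HEK-Blue lines were activated by ODN2006 5 nM for TLR9, R848 15.9 μM for TLR8 or gardiquimod 7.5 μM for TLR7. SEAP detected after 22 h, 37 °C; inhibition scaled between agonist+DMSO wells and known-inhibitor control.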

human TLR8 = human TLR8 (Homo sapiens (Human), UniProt Q9NR97); experiment: TLR8 inhibition reporter assay (HEK-Blue, SEAP); settings: HEK-Blue cells overexpressing human TLR8, R848 15.9 μM stimulation
Method in brief: as §1

human TLR9 = human TLR9 (Homo sapiens (Human), UniProt Q9NR96); experiment: TLR9 inhibition reporter assay (HEK-Blue, SEAP); settings: HEK-Blue cells overexpressing human TLR9, ODN2006 5 nM stimulation
Method in brief: as §1

human TLR9, sequence (Q9NR96 26-1032): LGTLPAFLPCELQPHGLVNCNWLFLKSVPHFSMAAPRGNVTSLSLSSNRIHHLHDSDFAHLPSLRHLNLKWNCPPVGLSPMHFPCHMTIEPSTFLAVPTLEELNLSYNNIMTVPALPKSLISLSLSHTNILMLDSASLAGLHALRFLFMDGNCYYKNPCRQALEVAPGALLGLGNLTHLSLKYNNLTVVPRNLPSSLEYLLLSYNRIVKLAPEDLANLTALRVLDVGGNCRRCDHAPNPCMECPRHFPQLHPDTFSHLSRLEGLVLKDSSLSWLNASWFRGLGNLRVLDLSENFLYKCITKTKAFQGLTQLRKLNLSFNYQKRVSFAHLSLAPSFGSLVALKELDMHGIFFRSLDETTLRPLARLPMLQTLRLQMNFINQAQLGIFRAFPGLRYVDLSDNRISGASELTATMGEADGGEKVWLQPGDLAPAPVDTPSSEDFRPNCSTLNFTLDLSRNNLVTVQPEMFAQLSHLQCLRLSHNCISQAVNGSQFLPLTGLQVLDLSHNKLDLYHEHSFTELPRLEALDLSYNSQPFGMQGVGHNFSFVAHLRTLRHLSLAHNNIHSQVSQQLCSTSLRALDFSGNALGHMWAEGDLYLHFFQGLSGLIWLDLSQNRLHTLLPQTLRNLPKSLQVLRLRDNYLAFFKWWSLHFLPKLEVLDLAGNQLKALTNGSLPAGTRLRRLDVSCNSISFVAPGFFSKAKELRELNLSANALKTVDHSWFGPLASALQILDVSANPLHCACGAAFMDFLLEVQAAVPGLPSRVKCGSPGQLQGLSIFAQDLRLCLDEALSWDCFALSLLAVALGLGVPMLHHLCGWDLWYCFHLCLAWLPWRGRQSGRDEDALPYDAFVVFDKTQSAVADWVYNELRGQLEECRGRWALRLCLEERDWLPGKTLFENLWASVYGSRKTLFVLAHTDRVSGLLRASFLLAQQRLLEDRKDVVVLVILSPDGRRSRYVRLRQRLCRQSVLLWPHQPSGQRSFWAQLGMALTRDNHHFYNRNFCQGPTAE
human TLR7, sequence (Q9NYK1 27-1049): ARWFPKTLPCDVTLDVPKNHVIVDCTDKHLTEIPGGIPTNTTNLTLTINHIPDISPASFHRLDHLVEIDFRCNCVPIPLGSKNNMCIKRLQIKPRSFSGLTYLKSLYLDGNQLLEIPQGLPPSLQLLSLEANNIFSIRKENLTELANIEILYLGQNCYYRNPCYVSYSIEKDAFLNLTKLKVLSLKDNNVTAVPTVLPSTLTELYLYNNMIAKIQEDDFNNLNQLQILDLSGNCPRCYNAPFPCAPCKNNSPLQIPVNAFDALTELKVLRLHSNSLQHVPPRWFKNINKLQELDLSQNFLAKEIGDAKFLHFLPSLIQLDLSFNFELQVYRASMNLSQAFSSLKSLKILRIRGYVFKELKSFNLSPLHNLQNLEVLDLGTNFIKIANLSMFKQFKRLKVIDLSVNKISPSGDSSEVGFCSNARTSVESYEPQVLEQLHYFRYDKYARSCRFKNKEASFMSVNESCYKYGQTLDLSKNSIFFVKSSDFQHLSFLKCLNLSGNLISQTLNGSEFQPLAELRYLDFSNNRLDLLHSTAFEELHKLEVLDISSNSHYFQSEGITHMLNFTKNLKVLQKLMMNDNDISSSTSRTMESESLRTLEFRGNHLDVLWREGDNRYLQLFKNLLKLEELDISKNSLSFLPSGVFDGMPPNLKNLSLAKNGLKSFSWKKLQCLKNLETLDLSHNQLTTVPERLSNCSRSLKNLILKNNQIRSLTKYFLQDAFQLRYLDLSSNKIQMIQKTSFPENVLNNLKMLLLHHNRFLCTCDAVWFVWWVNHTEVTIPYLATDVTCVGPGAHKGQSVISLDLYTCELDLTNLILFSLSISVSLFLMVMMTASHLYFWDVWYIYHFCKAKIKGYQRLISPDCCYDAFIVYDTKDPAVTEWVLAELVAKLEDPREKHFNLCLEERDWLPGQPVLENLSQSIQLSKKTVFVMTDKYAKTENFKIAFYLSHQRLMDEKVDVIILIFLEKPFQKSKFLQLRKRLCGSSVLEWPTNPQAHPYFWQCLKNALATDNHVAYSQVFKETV
human TLR8, sequence (Q9NR97 27-1041): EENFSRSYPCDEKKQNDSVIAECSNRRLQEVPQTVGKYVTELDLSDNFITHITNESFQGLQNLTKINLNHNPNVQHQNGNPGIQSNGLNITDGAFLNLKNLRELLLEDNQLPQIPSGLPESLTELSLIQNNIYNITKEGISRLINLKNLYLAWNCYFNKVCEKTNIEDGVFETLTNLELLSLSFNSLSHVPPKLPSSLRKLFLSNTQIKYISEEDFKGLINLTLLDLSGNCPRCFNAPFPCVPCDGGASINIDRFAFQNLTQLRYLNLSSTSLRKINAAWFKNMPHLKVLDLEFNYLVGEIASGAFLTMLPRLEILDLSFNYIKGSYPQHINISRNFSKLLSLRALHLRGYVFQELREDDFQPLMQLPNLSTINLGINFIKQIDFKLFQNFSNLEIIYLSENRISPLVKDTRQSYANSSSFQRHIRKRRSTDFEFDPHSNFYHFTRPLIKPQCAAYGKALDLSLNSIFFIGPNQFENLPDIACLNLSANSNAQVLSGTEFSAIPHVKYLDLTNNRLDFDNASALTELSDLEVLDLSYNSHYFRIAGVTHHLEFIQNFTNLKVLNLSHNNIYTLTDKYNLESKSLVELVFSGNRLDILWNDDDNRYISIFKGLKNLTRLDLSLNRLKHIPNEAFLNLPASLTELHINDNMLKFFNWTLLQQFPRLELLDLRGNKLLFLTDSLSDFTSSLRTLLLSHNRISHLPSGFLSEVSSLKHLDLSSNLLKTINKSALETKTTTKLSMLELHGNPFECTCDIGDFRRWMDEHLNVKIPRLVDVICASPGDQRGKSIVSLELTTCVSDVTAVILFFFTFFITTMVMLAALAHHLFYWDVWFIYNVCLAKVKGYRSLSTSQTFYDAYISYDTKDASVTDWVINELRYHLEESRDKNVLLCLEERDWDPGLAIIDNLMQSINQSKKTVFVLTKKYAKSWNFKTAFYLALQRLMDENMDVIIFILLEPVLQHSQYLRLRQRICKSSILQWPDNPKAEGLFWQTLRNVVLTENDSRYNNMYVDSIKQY

Row | Structure (SMILES) | IC50 (human TLR7) | IC50 (human TLR8) | IC50 (human TLR9)
1 | CC(C)c1c(-c2ccnc3[nH]ncc23)[nH]c2ccc(-c3nnc(C4CCNCC4)o3)cc12 [Example 102, 2-(3-isopropyl-2-(1H-pyrazolo[3,4-b]pyridin-4-yl)-1H-indol-5-yl)-5-(piperidin-4-yl)-1,3,4-oxadiazole] | 125 nM | 11 nM | 611 nM
2 | CC(C)c1c(-c2ccnc3[nH]ncc23)[nH]c2ccc(-c3nnc([C@@H]4CCCNC4)o3)cc12 [Example 103, (R)-2-(3-isopropyl-2-(1H-pyrazolo[3,4-b]pyridin-4-yl)-1H-indol-5-yl)-5-(piperidin-3-yl)-1,3,4-oxadiazole] | 54 nM | 5.4 nM | 166 nM
3 | CC(C)c1c(-c2ccnc3[nH]ncc23)[nH]c2ccc(-c3nnc(C[C@@H]4CCCN4)o3)cc12 [Example 104, (S)-2-(3-isopropyl-2-(1H-pyrazolo[3,4-b]pyridin-4-yl)-1H-indol-5-yl)-5-(pyrrolidin-2-ylmethyl)-1,3,4-oxadiazole] | 31 nM | 1.7 nM | 150 nM
4 | COc1ccc(-c2[nH]c3ccc(-c4nnc(N5CCNCC5)o4)cc3c2C(C)C)cc1OC [Example 105, 2-(2-(3,4-dimethoxyphenyl)-3-isopropyl-1H-indol-5-yl)-5-(piperazin-1-yl)-1,3,4-oxadiazole] | 19 nM | 8.8 nM | 1070 nM
5 | COc1ccc(-c2[nH]c3ccc(-c4nnc(C5CCN(Cc6ccccc6)CC5)[nH]4)cc3c2C(C)C)cc1OC [Example 106, 5-(5-(1-benzylpiperidin-4-yl)-4H-1,2,4-triazol-3-yl)-2-(3,4-dimethoxyphenyl)-3-isopropyl-1H-indole] | 138 nM | 45 nM | 1710 nM
6 | COc1ccc(-c2[nH]c3ccc(-c4nnc(CN5CC6CNCC6C5)o4)cc3c2C(C)C)cc1OC (stereo not drawn) [Example 107, 2-(2-(3,4-dimethoxyphenyl)-3-isopropyl-1H-indol-5-yl)-5-((hexahydropyrrolo[3,4-c]pyrrol-2(1H)-yl)methyl)-1,3,4-oxadiazole] | 228 nM | 23 nM | 2210 nM
7 | COc1ccc(-c2[nH]c3ccc(-c4nnc(CNCCNC(C)=O)o4)cc3c2C(C)C)cc1OC [Example 108, N-(2-(((5-(2-(3,4-dimethoxyphenyl)-3-isopropyl-1H-indol-5-yl)-1,3,4-oxadiazol-2-yl)methyl)amino)ethyl)acetamide] | 1980 nM | 220 nM | > 50000 nM
8 | COCCNCc1nnc(-c2ccc3[nH]c(-c4ccc(OC)c(OC)c4)c(C(C)C)c3c2)o1 [Example 109, N-((5-(2-(3,4-dimethoxyphenyl)-3-isopropyl-1H-indol-5-yl)-1,3,4-oxadiazol-2-yl)methyl)-2-methoxyethan-1-amine] | 4160 nM | 301 nM | > 50000 nM
9 | C#CCNCc1nnc(-c2ccc3[nH]c(-c4ccc(OC)c(OC)c4)c(C(C)C)c3c2)o1 [Example 110, N-((5-(2-(3,4-dimethoxyphenyl)-3-isopropyl-1H-indol-5-yl)-1,3,4-oxadiazol-2-yl)methyl)prop-2-yn-1-amine] | 917 nM | 734 nM | > 50000 nM
10 | CCOCCNCc1nnc(-c2ccc3[nH]c(-c4ccc(OC)c(OC)c4)c(C(C)C)c3c2)o1 [Example 111, N-((5-(2-(3,4-dimethoxyphenyl)-3-isopropyl-1H-indol-5-yl)-1,3,4-oxadiazol-2-yl)methyl)-2-ethoxyethan-1-amine] | 157 nM | 266 nM | > 50000 nM
11 | COc1ccc(-c2[nH]c3ccc(-c4nnc(CNCCOCCO)o4)cc3c2C(C)C)cc1OC [Example 112, 2-(2-(((5-(2-(3,4-dimethoxyphenyl)-3-isopropyl-1H-indol-5-yl)-1,3,4-oxadiazol-2-yl)methyl)amino)ethoxy)ethan-1-ol] | 38 nM | 82 nM | > 50000 nM
12 | COc1ccc(-c2[nH]c3ccc(-c4nnc(CNCCS(=O)(=O)O)o4)cc3c2C(C)C)cc1OC [Example 113, 2-(((5-(2-(3,4-dimethoxyphenyl)-3-isopropyl-1H-indol-5-yl)-1,3,4-oxadiazol-2-yl)methyl)amino)ethane-1-sulfonic acid] | 219 nM | 222 nM | > 50000 nM
13 | COc1ccc(-c2[nH]c3ccc(-c4nnc(CNCCOC(C)C)o4)cc3c2C(C)C)cc1OC [Example 114, N-((5-(2-(3,4-dimethoxyphenyl)-3-isopropyl-1H-indol-5-yl)-1,3,4-oxadiazol-2-yl)methyl)-2-isopropoxyethan-1-amine] | 386 nM | 530 nM | > 50000 nM
14 | COc1ccc(-c2[nH]c3ccc(-c4nnc(CN5CCOCC5)o4)cc3c2C(C)C)cc1OC [Example 115, 4-((5-(2-(3,4-dimethoxyphenyl)-3-isopropyl-1H-indol-5-yl)-1,3,4-oxadiazol-2-yl)methyl)morpholine] | 579 nM | 202 nM | > 50000 nM
15 | COc1ccc(-c2[nH]c3ccc(-c4nnc(CN5CCN(C(C)=O)CC5)o4)cc3c2C(C)C)cc1OC [Example 116, 1-(4-((5-(2-(3,4-dimethoxyphenyl)-3-isopropyl-1H-indol-5-yl)-1,3,4-oxadiazol-2-yl)methyl)piperazin-1-yl)ethan-1-one] | 331 nM | 395 nM | > 50000 nM
16 | COc1ccc(-c2[nH]c3ccc(-c4nnc(CN5CC[C@H](NC(C)=O)C5)o4)cc3c2C(C)C)cc1OC [Example 117, (S)—N-(1-((5-(2-(3,4-dimethoxyphenyl)-3-isopropyl-1H-indol-5-yl)-1,3,4-oxadiazol-2-yl)methyl)pyrrolidin-3-yl)acetamide] | 704 nM | 50 nM | > 50000 nM
17 | COCCN(CCOC)Cc1nnc(-c2ccc3[nH]c(-c4ccc(OC)c(OC)c4)c(C(C)C)c3c2)o1 [Example 118, N-((5-(2-(3,4-dimethoxyphenyl)-3-isopropyl-1H-indol-5-yl)-1,3,4-oxadiazol-2-yl)methyl)-2-methoxy-N-(2-methoxyethyl)ethan-1-amine] | 227 nM | 362 nM | 18600 nM
18 | COc1ccc(-c2[nH]c3ccc(-c4nnc(CN5CCCN(C(C)=O)CC5)o4)cc3c2C(C)C)cc1OC [Example 119, 1-(4-((5-(2-(3,4-dimethoxyphenyl)-3-isopropyl-1H-indol-5-yl)-1,3,4-oxadiazol-2-yl)methyl)-1,4-diazepan-1-yl)ethan-1-one] | 106 nM | 99 nM | 14400 nM
19 | COc1ccc(-c2[nH]c3ccc(-c4nnc(CN5CCNC(=O)C5)o4)cc3c2C(C)C)cc1OC [Example 120, 4-((5-(2-(3,4-dimethoxyphenyl)-3-isopropyl-1H-indol-5-yl)-1,3,4-oxadiazol-2-yl)methyl)piperazin-2-one] | 371 nM | 222 nM | > 50000 nM
20 | COCCN(C)Cc1nnc(-c2ccc3[nH]c(-c4ccc(OC)c(OC)c4)c(C(C)C)c3c2)o1 [Example 121, N-((5-(2-(3,4-dimethoxyphenyl)-3-isopropyl-1H-indol-5-yl)-1,3,4-oxadiazol-2-yl)methyl)-2-methoxy-N-methylethan-1-amine] | 108 nM | 166 nM | > 50000 nM
